Read-outs that look alike come from different tables or passages of the source.

These results are taken from article PMC7179434, “1,2,4-Triazolo[1,5-a]pyrimidines as a Novel Class of Inhibitors of the HIV-1 Reverse Transcriptase-Associated Ribonuclease H Activity” (Molecules, 2020).

For series [1], the target named is HIV-1 RNase H. On the set-up: method as in ref 17-25, 27-29 (per compound as in Figure 1 legend). Conditions: known allosteric RNHIs; 27-29 (per compound as in Figure 1 legend); cited from earlier work.
Series [2] deals with HIV-1 RDDP. Further details: method as in ref 17-21, 27-29 (per compound as in Figure 1 legend). Conditions: known allosteric RNHIs; 27-29 (per compound as in Figure 1 legend); cited from earlier work.
Series [3] concerns HIV-1 replication. Conditions: 28 (per compound as in Figure 1 legend); cited from earlier work.
For series [4], the target named is HIV-1 RT-associated RDDP (Human immunodeficiency virus type 1 group M subtype B, UniProt P03366). As to the kind of experiment: biochemical. It is filed as biochemical.
Series [5] addresses HIV-1 RT-associated RNase H (Human immunodeficiency virus type 1 group M subtype B, UniProt P03366). The series is described as follows: biochemical. The class given is biochemical.
In series [6] the test system is HIV-2 (ROD strain). The series is described as follows: Anti-HIV-2 activity in acutely infected MT-4 cells (MTT). The class given is cell-based.
The test system of series [7] is HIV-1 (IIIB strain). The class given is cell-based. Conditions: acutely infected MT-4 cells.
[8] abbreviates: wt RT, average and standard deviation of three independent experiments in duplicate.

What is called IC50 is the concentration that gives 50% inhibition. With `O=C(O)c1ccc(-c2cccc(/C=N/NC(=O)c3ccc(O)c(O)c3)c2)cc1` [Compound 2], the figures for the IC50 in series [1] and in series [2] were 0.4 µM and > 50 µM, respectively.
For `O=C1Nc2ccccc2/C1=N\Nc1nc(-c2ccc(O)c(O)c2)cs1` [Compound 3], the half-maximal inhibitory concentration (IC50) was 2 µM in series [1] and 1.4 µM in series [2]. In series [3], the “EC50 (HIV-1 replication)” value is reported as “not active”.
For `N#Cc1ccc(-c2csc(N/N=C3/C(=O)Nc4ccccc43)n2)cc1` [Compound 4], the half-inhibitory concentration (IC50) in series [1] was 1.3 µM; in series [2] it was 9.8 µM.
Take `Cc1sc2nc(-c3ccc([N+](=O)[O-])cc3)[nH]c(=O)c2c1C` [Compound 6]: the concentration for half-maximal inhibition (IC50) in series [1] was 0.85 µM.
Take `O=C(Nc1sc2c(c1C(=O)Nc1ccccn1)CCCCC2)c1ccc(O)c(O)c1` [Compound 8]: the values for the IC50 in series [1] and in series [2] were 0.84 µM and 20.9 µM, respectively. The “EC50 (HIV-1 replication)” value in series [3] is “not active”.
In the case of `O=c1oc(-c2ccc(O)c(O)c2)nc2sc3ccccc3c12` [Compound 9], the IC50 was 0.53 µM in series [1] and 2.9 µM in series [2]. In addition, in series [3], the “EC50 (HIV-1 replication)” value was “not active”.
Consider `CCCCCCCC/C=C\CCCCCCCCNC(=O)/C=C/c1ccc(O)c(O)c1` [Compound 10], for which the IC50 was 0.68 µM in series [1] and 2.3 µM in series [2].
For the compound `CCCCOc1ccc(C(=O)Nc2nc3n(n2)C(c2ccccc2)C=C(C)N3)cc1` (stereo not shown) [Compound 11a], the IC50 is > 100 µM in series [4] and 17.7 ± 2.7 µM in series [5].
Regarding `CCCCc1ccc(C(=O)Nc2nc3n(n2)C(c2ccccc2)C=C(C)N3)cc1` (stereo not shown) [Compound 11b], the “anti-HIV-2 (ROD strain) activity” value in series [6] is “none of the compounds having RNase H inhibition showed anti-HIV activity at concentrations lower than those cytotoxic”. In addition, the figures for the IC50 in series [4] and in series [5] were > 100 µM and 13.1 ± 2.2 µM, respectively. For the same compound, in series [7], the “anti-HIV-1 (IIIB strain) activity” value is on record as “none of the compounds having RNase H inhibition showed anti-HIV activity at concentrations lower than those cytotoxic”.
Usually melting point stands for the temperature, or range, at which the solid turns liquid. With `CCCCc1ccc(C(=O)Nc2nc3nc(C)cc(-c4ccccc4)n3n2)cc1` [Compound 12b, 4-Butyl-N-(5-methyl-7-phenyl-[1,2,4]triazolo[1,5-a]pyrimidin-2-yl)benzamide], the melting point was 157 to 158 °C. For the same compound, the IC50 in series [4] is > 100 µM. In series [5], the IC50 is 12.3 ± 1.5 µM.
`Cc1cc(-c2ccccc2)n2nc(NC(=O)c3ccccc3F)nc2n1` [Compound 12c, 2-Fluoro-N-(5-methyl-7-phenyl[1,2,4]triazolo[1,5-a]pyrimidin-2-yl)benzamide] displayed a melting point of 292 to 302 °C. Moreover, in series [4], the IC50 was > 100 µM. For the same compound, the IC50 in series [5] was > 100 µM.
In the case of `Cc1cc(-c2ccccc2)n2nc(NC(=O)c3ccc([N+](=O)[O-])cc3)nc2n1` [Compound 12d, N-(5-Methyl-7-phenyl-[1,2,4]triazolo[1,5-a]pyrimidin-2-yl)-4-nitrobenzamide], the melting point lay within 290 to 293 °C. In series [4], the IC50 is > 100 µM. The IC50 in series [5] was > 100 µM.
Turning to `Cc1cc(-c2ccccc2)n2nc(NC(=O)c3ccc(N)cc3)nc2n1` [Compound 12e, 4-Amino-N-(5-methyl-7-phenyl-[1,2,4]triazolo[1,5-a]pyrimidin-2-yl)benzamide], the melting point was in the range of 179 to 202 °C. Also, in series [4], the IC50 was > 100 µM. Besides, the IC50 in series [5] is > 100 µM.
With `COc1ccc(C(=O)Nc2nc3nc(C)cc(-c4ccccc4)n3n2)cc1OC` [Compound 12f, 3,4-Dimethoxy-N-(5-methyl-7-phenyl-[1,2,4]triazolo[1,5-a]pyrimidin-2-yl)benzamide], the melting point was in the range of 131 to 151 °C. In addition, the IC50 in series [4] is > 100 µM. In addition, the IC50 in series [5] was > 100 µM.
In turn, `Cc1cc(-c2ccccc2)nc2nc(NC(=O)c3ccccc3F)nn12` [Compound 13c, 2-Fluoro-N-(7-methyl-5-phenyl-[1,2,4]triazolo[1,5-a]pyrimidin-2-yl)benzamide] displayed a melting point of 165 to 169 °C. Also, the IC50 in series [4] is > 100 µM. For the same compound, the IC50 in series [5] was > 100 µM.
`Cc1cc(-c2ccccc2)nc2nc(NC(=O)c3ccc([N+](=O)[O-])cc3)nn12` [Compound 13d, N-(7-Methyl-5-phenyl-[1,2,4]triazolo[1,5-a]pyrimidin-2-yl)-4-nitrobenzamide] gave a melting point of 316 to 318 °C. The IC50 in series [4] is > 100 µM. The compound further yielded a concentration for half-maximal inhibition (IC50) in series [5] of 60.1 ± 3.3 µM.
On the same counts, the results for `Cc1cc(-c2ccccc2)nc2nc(NC(=O)c3ccc(N)cc3)nn12` [Compound 13e, 4-Amino-N-(7-methyl-5-phenyl-[1,2,4]triazolo[1,5-a]pyrimidin-2-yl)benzamide] are 318 to 319 °C, > 100 µM and > 100 µM.
In turn, `COc1ccc(C(=O)Nc2nc3nc(-c4ccccc4)cc(C)n3n2)cc1OC` [Compound 13f, 3,4-Dimethoxy-N-(7-methyl-5-phenyl-[1,2,4]triazolo[1,5-a]pyrimidin-2-yl)benzamide] registered a melting point of 175 to 179 °C. In addition, the IC50 in series [4] is > 100 µM. Moreover, the IC50 in series [5] was > 100 µM.
In turn, `Cc1cc(-c2ccccc2)nc2nc(NC(=O)c3ccc(O)c(O)c3)nn12` [Compound 13g, 3,4-Dihydroxy-N-(7-methyl-5-phenyl-[1,2,4]triazolo[1,5-a]pyrimidin-2-yl)benzamide] returned a melting point of 298 to 312 °C. For the same compound, the “anti-HIV-2 (ROD strain) activity” value in series [6] is on record as “none of the compounds having RNase H inhibition showed anti-HIV activity at concentrations lower than those cytotoxic”. In series [4], the IC50 is > 100 µM. In addition, the IC50 in series [5] was determined as 3.5 ± 1.5 µM. In addition, the “anti-HIV-1 (IIIB strain) activity” value in series [7] was “none of the compounds having RNase H inhibition showed anti-HIV activity at concentrations lower than those cytotoxic”.
Compound `CCCCc1ccc(C(=O)Nc2nc3nc(C)cc(C)n3n2)cc1` [Compound 14b, 4-Butyl-N-(5,7-dimethyl-[1,2,4]triazolo[1,5-a]pyrimidin-2-yl)benzamide] showed a melting point of 175 to 177 °C. Besides, in series [5], the IC50 was > 100 µM. In addition, in series [5] (setting [8]), the “HIV-1 RNaseH IC50” value is given as “complete loss of activity”.
For `Cc1cc(C)n2nc(NC(=O)c3ccccc3F)nc2n1` [Compound 14c, N-(5,7-Dimethyl-[1,2,4]triazolo[1,5-a]pyrimidin-2-yl)-2-fluorobenzamide], the melting point was in the range of 195 to 200 °C. For the same compound, in series [4], the IC50 is > 100 µM. In addition, in series [5], the IC50 is > 100 µM.
On to `Cc1cc(C)n2nc(NC(=O)c3ccc([N+](=O)[O-])cc3)nc2n1` [Compound 14d, N-(5,7-Dimethyl-[1,2,4]triazolo[1,5-a]pyrimidin-2-yl)-4-nitrobenzamide], for which the melting point lay in the range of 273 to 276 °C. For the same compound, the IC50 in series [4] was > 100 µM. Moreover, the IC50 in series [5] is > 100 µM.
With `Cc1cc(C)n2nc(NC(=O)c3ccc(N)cc3)nc2n1` [Compound 14e, 4-Amino-N-(5,7-dimethyl-[1,2,4]triazolo[1,5-a]pyrimidin-2-yl)benzamide], the melting point was 248 to 258 °C. In series [4], the IC50 is > 100 µM. For the same compound, the IC50 in series [5] was > 100 µM.
The compound `COc1ccc(C(=O)Nc2nc3nc(C)cc(C)n3n2)cc1OC` [Compound 14f, N-(5,7-Dimethyl-[1,2,4]triazolo[1,5-a]pyrimidin-2-yl)-3,4-dimethoxybenzamide] displayed a melting point of 190 to 194 °C. Moreover, in series [4], the IC50 is > 100 µM. In series [5], the IC50 is > 100 µM.
Compound `Cc1cc(C)n2nc(NC(=O)c3ccc(O)c(O)c3)nc2n1` [Compound 14g, N-(5,7-Dimethyl-[1,2,4]triazolo[1,5-a]pyrimidin-2-yl)-3,4-dihydroxybenzamide] yielded a melting point of 299 to 301 °C. Also, the IC50 in series [4] is > 100 µM. In series [5], this compound gave a concentration for half-maximal inhibition (IC50) of 6.23 ± 0.01 µM.
`O=C(Nc1nc2nc(-c3ccccc3)cc(-c3ccccc3)n2n1)c1ccc(O)c(O)c1` [Compound 15g, N-(5,7-diphenyl-[1,2,4]triazolo[1,5-a]pyrimidin-2-yl)-3,4-dihydroxybenzamide] registered a melting point of 258 to 260 °C. Besides, the “anti-HIV-2 (ROD strain) activity” value in series [6] is recorded as “none of the compounds having RNase H inhibition showed anti-HIV activity at concentrations lower than those cytotoxic”. In series [4], the half-inhibitory concentration (IC50) was 20.5 ± 4.1 µM. The “fold weaker potency against RDDP than against RNase H” value in series [4] (RDDP IC50 vs RNase H IC50) was determined as 10 fold. The IC50 in series [5] was determined as 1.86 ± 0.54 µM. The “anti-HIV-1 (IIIB strain) activity” value in series [7] is given as “none of the compounds having RNase H inhibition showed anti-HIV activity at concentrations lower than those cytotoxic”.
As for `COc1ccc(-c2cc(C)nc3nc(N(C(=O)c4ccccc4)C(=O)c4ccccc4)nn23)cc1OC` [Compound 16hh, N-benzoyl-N-(7-(3,4-dimethoxyphenyl)-5-methyl-[1,2,4]triazolo[1,5-a]pyrimidin-2-yl)benzamide], the IC50 in series [4] is > 100 µM; in series [5], 6.74 ± 0.55 µM. The “HIV-1 RNaseH IC50” value in series [5] (setting [8]) is recorded as “low micromolar range”.
Compound `Cc1cc(-c2ccccc2)nc2nc(C(=O)Nc3ccc(O)c(O)c3)nn12` [Compound 19g, N-(3,4-Dihydroxyphenyl)-7-methyl-5-phenyl-[1,2,4]triazolo[1,5-a]pyrimidine-2-carboxamide] showed a melting point of 247 to 250 °C. It took 43.1 ± 2.1 µM to reach half-maximal inhibition in series [5] (IC50). Besides, in series [5] (setting [8]), the “HIV-1 RNaseH IC50” value is recorded as “markedly decreased anti-RNase H activity”.
`CCOC(=O)C(=O)CC(=O)C=Cc1cccn1Cc1ccc(F)cc1` [RDS1643, reference compound]: the IC50 in series [5] (wt RT, average and standard deviation of three independent experiments in duplicate, read-out: HIV-1 RNaseH IC50) came out at 9 ± 2 µM.
